The values below come from PubChem BioAssay (NCI).

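Step 1: Grow cells in 96-well plates. Step 2: Expose to compound for 48 hours at 5 concentrations. Step 3: Interpolate endpoints linearly; if unreached, use highest concentration. TGI marks complete inhibition of growth.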

Some test systems named below: ACHN renal; DU-145 prostate; HCC-2998 colon; HCT-15 colon; HS 578T breast; HT29 colon; M14 melanoma; NCI-H226 lung; NCI-H522 lung; NCI/ADR-RES ovarian; OVCAR-8 ovarian; SF-268 CNS; SK-MEL-2 melanoma; SK-MEL-28 melanoma; SNB-75 CNS; TK-10 renal.
Holding throughout (experiment): NCI-60 cell line screen, 48 h

As for `CC(C)c1ccc2[nH]c(O)c(C3=Nc4ccccc4C3=O)c2c1`, the TGI in the test on ACHN renal is 18.6 µM; in the test with DU-145 prostate it was 94.5 µM; in the test with HCC-2998 colon, over 100 µM; in the test with HCT-15 colon it was over 100 µM; with HS 578T breast it was 85.3 µM; in the test on HT29 colon, over 100 µM. Besides, the TGI was over 100 µM in the test with M14 melanoma; 18.7 µM in the test with NCI-H226 lung; 97 µM in the test on NCI-H522 lung; over 100 µM in the test with NCI/ADR-RES ovarian; over 100 µM with OVCAR-8 ovarian; over 100 µM with SF-268 CNS. For the same compound, the TGI in the test with SK-MEL-2 melanoma was 53.8 µM; in the test on SK-MEL-28 melanoma it was over 100 µM; in the test on SNB-75 CNS it was 9.36 µM; in the test on TK-10 renal, 54.2 µM.
In the case of `COC(=O)/C=C(/C(=O)OC)c1c(C)cc2c(C)cc(C)cc(C)c1-2`, the TGI in the test with ACHN renal is over 100 µM; in the test on DU-145 prostate it was over 91.8 µM; in the test on HCC-2998 colon it was over 100 µM; with HCT-15 colon it was 18.8 µM; in the test on HS 578T breast, 51.1 µM; in the test with HT29 colon, 28.3 µM. The TGI in the test with M14 melanoma is 35.1 µM; with NCI-H226 lung, 61.6 µM; in the test on NCI-H522 lung, 28.4 µM; in the test with NCI/ADR-RES ovarian, over 64.6 µM; in the test with OVCAR-8 ovarian it was over 86.6 µM; with SF-268 CNS it was over 65.7 µM. The TGI was over 77.1 µM with SK-MEL-2 melanoma, over 100 µM in the test with SK-MEL-28 melanoma, over 72.2 µM in the test with SNB-75 CNS and over 83.3 µM with TK-10 renal.
As for `Cc1cc(-c2nc3cc(O)ccc3s2)ccc1N`, the TGI in the test on ACHN renal was 74.7 µM; with DU-145 prostate, over 100 µM; in the test on HCC-2998 colon, over 100 µM; with HCT-15 colon, over 100 µM; in the test with HS 578T breast it was over 100 µM; with HT29 colon, 50.7 µM. The TGI with M14 melanoma is 52.4 µM; in the test on NCI-H226 lung it was over 100 µM; in the test with NCI-H522 lung, over 100 µM; in the test with NCI/ADR-RES ovarian it was over 100 µM; with OVCAR-8 ovarian, over 100 µM; with SF-268 CNS, over 100 µM. The TGI with SK-MEL-2 melanoma is 74.4 µM; in the test on SK-MEL-28 melanoma, 75.5 µM; in the test with SNB-75 CNS, 95.5 µM; in the test on TK-10 renal it was over 100 µM.
Take `COc1cc(-c2oc(C=Nc3ccccc3)c([N+](=O)[O-])c2-c2ccc(O)c(OC)c2)ccc1O`: the TGI is 32 µM with ACHN renal; 53.3 µM with DU-145 prostate; 30.5 µM with HCC-2998 colon; 42.3 µM with HCT-15 colon; over 100 µM in the test on HS 578T breast; over 55.9 µM with HT29 colon. In addition, the TGI with M14 melanoma was over 100 µM; with NCI-H226 lung, over 100 µM; with NCI-H522 lung it was 30.2 µM; in the test with NCI/ADR-RES ovarian, over 68.1 µM; in the test with OVCAR-8 ovarian, over 54.9 µM; with SF-268 CNS, 73.7 µM. Moreover, the TGI in the test on SK-MEL-2 melanoma is over 100 µM; with SK-MEL-28 melanoma, 68.7 µM; with SNB-75 CNS it was 64.4 µM; with TK-10 renal, 39.5 µM.
As for `O=Cc1ccc(-c2cccc([N+](=O)[O-])c2)s1`, the TGI in the test on ACHN renal, in the test on DU-145 prostate, in the test on HCC-2998 colon, with HCT-15 colon, in the test on HS 578T breast and with HT29 colon was over 100 µM each time. Besides, the TGI in the test on M14 melanoma, in the test on NCI-H226 lung, in the test on NCI-H522 lung, in the test with NCI/ADR-RES ovarian, with OVCAR-8 ovarian and in the test with SF-268 CNS was over 100 µM throughout. Further, the TGI with SK-MEL-2 melanoma, in the test with SK-MEL-28 melanoma, in the test on SNB-75 CNS and in the test with TK-10 renal was over 100 µM throughout.
Regarding `COc1cc(/C=C2\CC3C4CC[C@H]5C[C@@H](O)CC[C@]5(C)C4CC[C@]3(C)C2=O)cc(OC)c1OC` (some centres undefined), the TGI with ACHN renal is 45.8 µM; in the test with DU-145 prostate, over 100 µM; in the test on HCC-2998 colon it was 34.9 µM; in the test on HCT-15 colon it was over 100 µM; in the test on HS 578T breast, over 100 µM; with HT29 colon, over 100 µM. Also, the TGI in the test with M14 melanoma was 61 µM; in the test with NCI-H226 lung it was 86.1 µM; with NCI-H522 lung, 43.3 µM; in the test on NCI/ADR-RES ovarian, over 100 µM; with OVCAR-8 ovarian it was over 100 µM; in the test on SF-268 CNS, over 100 µM. Moreover, the TGI in the test on SK-MEL-2 melanoma is 33.7 µM; in the test on SK-MEL-28 melanoma, over 100 µM; in the test with SNB-75 CNS, 79.7 µM; with TK-10 renal, over 100 µM.
On to `CN1CCN(CCCCN2c3ccccc3Sc3ccc(N=[N+]=[N-])cc32)CC1`, for which the TGI was 22.1 µM in the test with ACHN renal; 26.6 µM in the test on DU-145 prostate; 18.3 µM in the test with HCC-2998 colon; 23 µM in the test with HCT-15 colon; 30.7 µM in the test on HS 578T breast; 4.59 µM in the test on HT29 colon. Also, the TGI with M14 melanoma was 3.83 µM; in the test on NCI-H226 lung it was 31.7 µM; in the test on NCI-H522 lung, 13.6 µM; in the test on NCI/ADR-RES ovarian it was 30 µM; in the test on OVCAR-8 ovarian, 29.8 µM; in the test with SF-268 CNS, 28.2 µM. The TGI came out at 12.9 µM with SK-MEL-2 melanoma, 3.73 µM in the test on SK-MEL-28 melanoma, 16.2 µM in the test with SNB-75 CNS and 27.9 µM in the test with TK-10 renal.
On to `Cc1ccc(CCCCCOc2ccc(C3=NCCO3)cc2)s1`, for which the TGI with ACHN renal, with DU-145 prostate, in the test with HCC-2998 colon, with HCT-15 colon, in the test with HS 578T breast and in the test with HT29 colon was over 100 µM throughout. Besides, the TGI with M14 melanoma, in the test on NCI-H226 lung, in the test on NCI-H522 lung, in the test on NCI/ADR-RES ovarian, in the test with OVCAR-8 ovarian and with SF-268 CNS was over 100 µM in each case. In addition, the TGI in the test with SK-MEL-2 melanoma, in the test with SK-MEL-28 melanoma, with SNB-75 CNS and in the test on TK-10 renal was over 100 µM throughout.
For `CC(=O)N1C2=CCCC2(C)c2ccccc21` (centres undefined), the TGI was over 100 µM with ACHN renal; over 100 µM in the test with DU-145 prostate; 99.7 µM with HCC-2998 colon; over 100 µM with HCT-15 colon; over 100 µM in the test with HS 578T breast; over 100 µM with HT29 colon. Moreover, the TGI in the test on M14 melanoma was over 100 µM; in the test on NCI-H226 lung, over 100 µM; in the test with NCI-H522 lung, 94.8 µM; with NCI/ADR-RES ovarian, over 100 µM; in the test with OVCAR-8 ovarian, over 100 µM; in the test with SF-268 CNS, over 100 µM. Also, the TGI in the test with SK-MEL-2 melanoma, with SK-MEL-28 melanoma, in the test on SNB-75 CNS and in the test with TK-10 renal was over 100 µM each time.
